Literature values as cited in PubChem BioAssay AID1259410 (Chemical Carcinogenesis Research Information System (CCRIS), 2018).

Tested on: rodent tumor promotion studies, tumor incidence
Assay: CCRIS tumor promotion studies

O=C1O[C@H]([C@@H](O)CO)C(O)=C1O
outcome (Carcinogen: 1,2-DIMETHYLHYDRAZINE, 540-73-8, Doses [Carcinogen]: 20 MG/KG 1/WK FOR 4 WK, Doses [Promoter]: 0, 5% IN DIET FOR 36 WK (STUDY DURATION: 40 WK), Route [Carcinogen]: SUBCUTANEOUS, Route [Promoter]: ORAL, Species: RAT, Strain/Sex: F344/MALE): colon: tumor | outcome (Carcinogen: BUTYLATED HYDROXYANISOLE, 25013-16-5, Doses [Carcinogen]: 2% IN DIET FOR 1 YR, Doses [Promoter]: 0, 2% IN DIET CONCOMITANTLY WITH CARCINOGEN FOR 1 YR (STUDY DURATION: 1 YR), Route [Carcinogen]: ORAL, Route [Promoter]: ORAL, Species: RAT, Strain/Sex: F344/MALE): forestomach: squamous cell carcinoma | outcome (Carcinogen: METHYLNITROSOUREA, 684-93-5, Doses [Carcinogen]: 20 MG/KG 2/WK FOR 4 WK, Doses [Promoter]: 0, 5% IN DIET BEGINNING POST CARCINOGEN TREATMENT AND CONTINUING FOR 32 WK (STUDY DURATION: 36 WK), Route [Carcinogen]: INTRAPERITONEAL, Route [Promoter]: ORAL, Species: RAT, Strain/Sex: F344/MALE): urinary bladder: papilloma; forestomach: carcinoma | outcome (Carcinogen: N-BUTYL-N-4(HYDROXYBUTYL)NITROSAMINE, 3817-11-6, Doses [Carcinogen]: 0.05% IN DRINKING WATER FOR 2 WK, Doses [Promoter]: 0, 5% IN DIET STARTING POST CARCINOGEN AND CONTINUING FOR 22 WK, LEFT URETER LIGATED 8 D POST CARCINOGEN (STUDY DURATION, Route [Carcinogen]: ORAL, Route [Promoter]: ORAL, Species: RAT, Strain/Sex: F344/MALE): bladder: papilloma | outcome (Carcinogen: N-BUTYL-N-(4-HYDROXYBUTYL)-NITROSAMINE, 3817-11-6, Doses [Carcinogen]: 0.05% IN DRINKING WATER FOR 4 WK, Doses [Promoter]: 0, 5% IN DIET FOR 32 WK BEGINNING POST CARCINOGEN TREATMENT (STUDY DURATION: 36 WK), Route [Carcinogen]: ORAL, Route [Promoter]: ORAL, Species: RAT, Strain/Sex: F344/MALE): urinary bladder: papilloma, carcinoma | outcome (Carcinogen: N-BUTYL-N-(4-HYDROXYBUTYL)-NITROSAMINE, 3817-11-6, Doses [Carcinogen]: 0.05% IN DRINKING WATER FOR 4 WK, Doses [Promoter]: 0, 5% IN DIET FOR 32 WK BEGINNING POST CARCINOGEN TREATMENT (STUDY DURATION: 36 WK), Route [Carcinogen]: ORAL, Route [Promoter]: ORAL, Species: RAT, Strain/Sex: LEW/MALE): urinary bladder: papilloma, carcinoma | outcome (Carcinogen: N-BUTYL-N-(4-HYDROXYBUTYL)NITROSAMINE [3817-11-6], Doses [Carcinogen]: 0.05% IN DRINKING WATER FOR 4 WK (STUDY DURATION: 40 WK), Doses [Promoter]: 2.5% IN DIET FOR 18 WK BEGINNING IMMEDIATELY POST LAST CARCINOGEN DOSE (STUDY DURATION: 40 WK), Route [Carcinogen]: ORAL, Route [Promoter]: ORAL, Species: RAT, Strain/Sex: F344/MALE): urinary bladder: tumor | outcome (Carcinogen: N-BUTYL-N-(4-HYDROXYBUTYL)NITROSAMINE, 3817-11-6, Doses [Carcinogen]: 0.05% IN DRINKING WATER FOR 2 WK, Doses [Promoter]: 0, 5% IN DIET FOR 32 WK BEGINNING POST CARCINOGEN TREATMENT (STUDY DURATION: 34 WK), Route [Carcinogen]: ORAL, Route [Promoter]: ORAL, Species: RAT, Strain/Sex: F344/MALE): urinary bladder: papilloma, carcinoma | outcome (Carcinogen: N-BUTYL-N-(4-HYDROXYBUTYL)NITROSAMINE, 3817-11-6, Doses [Carcinogen]: 0.05% IN DRINKING WATER FOR 4 WK, Doses [Promoter]: 0, 5% IN BASAL DIET CONTAINING 1.5% SODIUM BICARBONATE FOR 32 WK (STUDY DURATION: 36 WK), Route [Carcinogen]: ORAL, Route [Promoter]: ORAL, Species: RAT, Strain/Sex: F344/MALE): urinary bladder: carcinoma | outcome (Carcinogen: N-BUTYL-N-(4-HYDROXYBUTYL)NITROSAMINE, 3817-11-6, Doses [Carcinogen]: 0.05% IN DRINKING WATER FOR 4 WK, Doses [Promoter]: 0, 5% IN DIET FOR 32 WK (STUDY DURATION: 36 WK), Route [Carcinogen]: ORAL, Route [Promoter]: ORAL, Species: RAT, Strain/Sex: F344/MALE): urinary bladder: papilloma, carcinoma | outcome (Carcinogen: N-BUTYL-N-(4-HYDROXYBUTYL)NITROSAMINE, 3817-11-6, Doses [Carcinogen]: 0.05% IN DRINKING WATER FOR 4 WK, Doses [Promoter]: 0, 5% IN DIET FOR 32 WK BEGINNING POST CARCINOGEN TREATMENT (STUDY DURATION: 36 WK), Route [Carcinogen]: ORAL, Route [Promoter]: ORAL, Species: RATS, Strain/Sex: F344/SHI/MALE): bladder: papilloma, carcinoma | outcome (Carcinogen: N-BUTYL-N-(4-HYDROXYBUTYL)NITROSAMINE, 3817-11-6, Doses [Carcinogen]: 0.05% IN DRINKING WATER FOR 4 WK, Doses [Promoter]: 0, 5% IN DIET FOR 32 WK POST CARCINOGEN DOSE (STUDY DURATION: 36 WK), Route [Carcinogen]: ORAL, Route [Promoter]: ORAL, Species: RAT, Strain/Sex: F344/MALE): bladder: carcinoma or papilloma | outcome (Carcinogen: N-METHYL-N-NITROSOUREA, 684-93-5, Doses [Carcinogen]: 20 MG/KG 2/WK FOR 4 WK, Doses [Promoter]: 0, 5% IN DIET FOR 32 WK (STUDY DURATION: 32 WK), Route [Carcinogen]: INTRAPERITONEAL, Route [Promoter]: ORAL, Species: RAT, Strain/Sex: F344/MALE): forestomach: papilloma, carcinoma; urinary bladder: papilloma, carcinoma | outcome (Carcinogen: N-[4-(5-NITRO-2-FURYL)-2-THIAZOLYL]FORMAMIDE, 24554-26-5, Doses [Carcinogen]: 0.2% IN DIET FOR 6 WK, Doses [Promoter]: 0, 5% IN PROLAB DIET FOR 72 WK BEGINNING POST CARCINOGEN TREATMENT (STUDY DURATION: 78 WK), Route [Carcinogen]: ORAL, Route [Promoter]: ORAL, Species: RAT, Strain/Sex: F344/MALE): urinary bladder: carcinoma, carcinoma or papilloma | outcome (Carcinogen: N-bis(2-hydroxypropyl)nitrosamine (DHPN) (53609-64-6), Doses [Carcinogen]: 0.1% (w/v) in drinking water for 3 wk, then surgery for acid reflux esophagitis, study duration 34 wk, Doses [Promoter]: 0 (basal diet), 1% ascorbic acid, 1% ascorbic acid with 0.2% sodium nitrite, study duration 32 wk after first promoter d, Doses [Promoter]: 0 (basal diet), 1% ascorbic acid, 1% ascorbic acid with 0.2% sodium nitrite, study duration 32 wk after first promoter d, Route [Carcinogen]: Oral, Route [Promoter]: Oral, Species: Rat, Strain/Sex: F344/Male (24/group)): esophagus (p1-p4): papilloma; significant only for combined treatment in p4 segm | outcome (Carcinogen: N-methyl-N'-nitro-N-nitrosoguanidine (70-25-7), Doses [Carcinogen]: 0.01% in drinking water for 10 wk for initiation of glandular stomach tumors, 100 mg/kg intragastrically after 16 hr st, Doses [Promoter]: 0.1% or 1.0% in the diet from wk 11 to end of study in combination with 0.05%, 0.1%, or 0.2% sodium nitrite in drinki, Route [Carcinogen]: Oral and Intragastric, Route [Promoter]: Oral, Species: Rat, Strain/Sex: F344/Male (15/15)/(14/15)(15/15)(15/15)(15/15)(15/15)(14/15)): forestomach: squamous cell carcinoma, papilloma increased in incidence and/or se

CC(C)(C)c1ccc(O)c(O)c1
outcome (Carcinogen: N-METHYL-N'-NITRO-N-NITROSOGUANIDINE, 70-25-7, Doses [Carcinogen]: 150 MG/KG IN DMSO ONCE, Doses [Promoter]: 0, 1.5% IN DIET FOR 51 WK BEGINNING 1 WK AFTER CARCINOGEN DOSE (STUDY DURATION: 52 WK), Route [Carcinogen]: GAVAGE, Route [Promoter]: ORAL, Species: RAT, Strain/Sex: F344/MALE): forestomach: squamous cell carcinoma

O=C1NC(=O)C(c2ccccc2)(c2ccccc2)N1
outcome (Carcinogen: N,N-DIETHYLNITROSAMINE, 55-18-5, Doses [Carcinogen]: 75 MG/KG IN SALINE ONCE AT 5 WK OF AGE, Doses [Promoter]: 0, 500, 1500 PPM IN DIET FOR 45 WK BEGINNING 2 WK POST CARCINOGEN TREATMENT (STUDY DURATION: 47 WK), Doses [Promoter]: 0, 500, 1500 PPM IN DIET FOR 45 WK BEGINNING 2 WK POST CARCINOGEN TREATMENT (STUDY DURATION: 47 WK), Route [Carcinogen]: INTRAPERITONEAL, Route [Promoter]: ORAL, Species: RAT, Strain/Sex: F344/MALE): liver: hepatocellular adenoma | outcome (Carcinogen: N,N-DIETHYLNITROSAMINE, 55-18-5, Doses [Carcinogen]: 75 MG/KG IN SALINE ONCE AT 5 WK OF AGE, Doses [Promoter]: 0, 500, 1500 PPM IN DIET FOR 46-72 WK BEGINNING 2 WK POST CARCINOGEN TREATMENT (STUDY DURATION: 46-72 WK), Doses [Promoter]: 0, 500, 1500 PPM IN DIET FOR 46-72 WK BEGINNING 2 WK POST CARCINOGEN TREATMENT (STUDY DURATION: 46-72 WK), Route [Carcinogen]: INTRAPERITONEAL, Route [Promoter]: ORAL, Species: RAT, Strain/Sex: F344/MALE): liver: hepatocellular adenoma | outcome (Carcinogen: N-NITROSODIETHYLAMINE, 55-18-5, Doses [Carcinogen]: 90 MG/KG BW IN TRICAPRYLIN ONCE, Doses [Promoter]: 0, 500 PPM IN DIET FOR 53 WK BEGINNING 2 WK POST CARCINOGEN DOSE (STUDY DURATION: 55 WK), Route [Carcinogen]: INTRAPERITONEAL, Route [Promoter]: ORAL, Species: MOUSE, Strain/Sex: D2B6F1/MALE): liver: tumor
